Legend:
Type in all cases: binding
Settings in all cases: Compound Concentration 10 µM
panel of 442 kinases [1] = target: T1, panel of 442 kinases (Homo sapiens, UniProt P17612)
T1 construct: purchased KINOMEscan
Text: (§1) We assessed the selectivity of members of this scaffold using the KINOMEscan methodology across a near comprehensive panel of 442 kinases [[18,27]].

panel of 442 kinases [2] = target: T2, panel of 442 kinases (Homo sapiens, UniProt P42338)
T2 construct: purchased KINOMEscan
Text: as §1

panel of 442 kinases [3] = target: T3, panel of 442 kinases (Homo sapiens, UniProt P53350)
T3 construct: purchased KINOMEscan
T3 sequence (P53350 whole entry): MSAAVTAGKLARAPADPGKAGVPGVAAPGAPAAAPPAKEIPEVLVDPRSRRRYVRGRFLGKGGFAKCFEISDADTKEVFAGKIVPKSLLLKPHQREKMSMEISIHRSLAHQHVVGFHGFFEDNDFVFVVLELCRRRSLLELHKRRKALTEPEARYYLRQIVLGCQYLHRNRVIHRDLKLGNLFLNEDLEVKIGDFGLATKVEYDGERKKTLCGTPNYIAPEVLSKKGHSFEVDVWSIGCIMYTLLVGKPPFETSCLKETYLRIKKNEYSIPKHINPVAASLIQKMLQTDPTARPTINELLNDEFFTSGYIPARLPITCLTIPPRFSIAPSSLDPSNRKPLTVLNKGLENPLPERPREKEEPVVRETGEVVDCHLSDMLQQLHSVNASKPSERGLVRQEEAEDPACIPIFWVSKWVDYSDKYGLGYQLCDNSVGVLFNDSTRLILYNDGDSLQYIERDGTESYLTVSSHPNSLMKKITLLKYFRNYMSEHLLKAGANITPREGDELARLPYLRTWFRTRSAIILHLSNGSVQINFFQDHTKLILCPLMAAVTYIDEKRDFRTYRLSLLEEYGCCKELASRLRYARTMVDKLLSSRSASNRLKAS
Text: as §1

panel of 442 kinases [4] = target: T4, panel of 442 kinases (Homo sapiens, UniProt Q9P1W9)
T4 construct: purchased KINOMEscan
T4 sequence (Q9P1W9 whole entry): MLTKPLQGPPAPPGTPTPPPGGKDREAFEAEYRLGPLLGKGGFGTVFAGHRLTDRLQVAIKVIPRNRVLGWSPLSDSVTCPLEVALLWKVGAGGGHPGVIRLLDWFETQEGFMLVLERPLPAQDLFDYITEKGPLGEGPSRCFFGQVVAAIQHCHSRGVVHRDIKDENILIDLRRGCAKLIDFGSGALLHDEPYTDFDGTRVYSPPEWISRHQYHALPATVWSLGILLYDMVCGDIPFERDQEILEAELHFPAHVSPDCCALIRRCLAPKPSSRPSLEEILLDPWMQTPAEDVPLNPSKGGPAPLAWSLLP
Text: as §1

T2 sequence (P42338 whole entry): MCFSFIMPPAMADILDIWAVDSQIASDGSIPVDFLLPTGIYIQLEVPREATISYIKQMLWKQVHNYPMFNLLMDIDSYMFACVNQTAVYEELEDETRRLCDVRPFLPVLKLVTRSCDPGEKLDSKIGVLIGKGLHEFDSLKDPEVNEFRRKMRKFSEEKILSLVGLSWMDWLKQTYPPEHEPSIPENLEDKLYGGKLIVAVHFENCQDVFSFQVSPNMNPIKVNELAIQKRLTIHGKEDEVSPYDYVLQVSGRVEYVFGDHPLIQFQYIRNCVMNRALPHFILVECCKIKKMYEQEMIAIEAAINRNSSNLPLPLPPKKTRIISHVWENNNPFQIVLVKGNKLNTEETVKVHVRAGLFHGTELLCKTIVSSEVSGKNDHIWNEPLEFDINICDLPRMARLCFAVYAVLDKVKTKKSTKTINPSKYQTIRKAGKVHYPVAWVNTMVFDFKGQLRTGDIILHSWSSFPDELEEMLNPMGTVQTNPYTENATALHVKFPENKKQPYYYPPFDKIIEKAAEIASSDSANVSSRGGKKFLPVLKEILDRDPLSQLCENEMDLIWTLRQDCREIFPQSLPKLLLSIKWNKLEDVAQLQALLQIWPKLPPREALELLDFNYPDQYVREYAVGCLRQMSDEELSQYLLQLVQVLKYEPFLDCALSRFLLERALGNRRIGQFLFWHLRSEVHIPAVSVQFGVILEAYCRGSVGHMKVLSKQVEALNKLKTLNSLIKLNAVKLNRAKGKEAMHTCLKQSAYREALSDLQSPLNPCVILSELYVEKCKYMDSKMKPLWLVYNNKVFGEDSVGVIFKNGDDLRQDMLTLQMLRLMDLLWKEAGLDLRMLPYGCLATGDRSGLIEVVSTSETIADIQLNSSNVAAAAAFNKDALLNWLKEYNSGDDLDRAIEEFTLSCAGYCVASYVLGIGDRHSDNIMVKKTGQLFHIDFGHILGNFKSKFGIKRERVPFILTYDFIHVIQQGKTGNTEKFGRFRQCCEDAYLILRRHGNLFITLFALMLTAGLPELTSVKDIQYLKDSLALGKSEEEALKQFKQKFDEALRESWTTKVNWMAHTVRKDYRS

## COc1cc(C(=O)N2CCC(N3CCN(C)CC3)CC2)ccc1Nc1ncc2c(n1)N(C)c1ccccc1C(=O)N2C [15 (LRRK2-IN-1)]
Panel of 442 kinases [1]
  KINOMEscan: PKAC-alpha: 100
Panel of 442 kinases [2]
  KINOMEscan: PIK3CB: 96
Panel of 442 kinases [3]
  KINOMEscan: PLK1: 0.7
Panel of 442 kinases [4]
  KINOMEscan: PIM2: 100

## COc1cc(C(=O)N2CCC(N3CCN(C)CC3)CC2)ccc1Nc1ncc2c(n1)N1CCc3cccc(c31)C(=O)N2C [Compound 24]
Panel of 442 kinases [2]
  KINOMEscan: PIK3CB: 71
Panel of 442 kinases [3]
  KINOMEscan: PLK1: 0.2
Panel of 442 kinases [4]
  KINOMEscan: PIM2: 85

## COc1cc(C(=O)N2CCC(N3CCN(C)CC3)CC2)ccc1Nc1ncc2c(n1)N(C1CCCC1)c1ccccc1C(=O)N2C [Compound 25, 11-cyclopentyl-2-((2-methoxy-4-(4-(4-methylpiperazin-1-yl)piperidine-1-carbonyl)phenyl)amino)-5-methyl-5H-benzo[e]pyrimido[5,4-b][1,4]diazepin-6(11H)-one]
Panel of 442 kinases [1]
  KINOMEscan: PKAC-alpha: 100
Panel of 442 kinases [2]
  KINOMEscan: PIK3CB: 87
Panel of 442 kinases [3]
  KINOMEscan: PLK1: 43
Panel of 442 kinases [4]
  KINOMEscan: PIM2: 100

## CCOc1cc(C(=O)N2CCC(N3CCN(C)CC3)CC2)ccc1Nc1ncc2c(n1)N(C1CCCC1)c1ccccc1C(=O)N2C [Compound 26]
Panel of 442 kinases [1]
  KINOMEscan: PKAC-alpha: 100
Panel of 442 kinases [2]
  KINOMEscan: PIK3CB: 100
Panel of 442 kinases [3]
  KINOMEscan: PLK1: 95
Panel of 442 kinases [4]
  KINOMEscan: PIM2: 100

Reference: article PMC3914206
